Read-outs that look alike come from different tables or passages of the source.
Key:
[1] = system: adult daily cigarette smokers
Experimental: Subjects are randomized to one of the three arms A, B, or C. In Arm A, subjects are treated with a placebo for 12 weeks plus behavioral support. In Arm B, subjects are treated with 3.0 mg cytisinicline TID for 6 weeks followed by a placebo for 6 weeks plus behavioral support. In Arm C, subjects are treated with 3.0 mg cytisinicline TID for 12 weeks plus behavioral support.
The safety objectives of the study will be the following: • To evaluate the safety profile of 3.0 mg TID cytisinicline compared to placebo (e.g., Arm B versus Arm A and Arm C versus Arm A); • To compare the safety profiles of Arm B subjects versus Arm C subjects with respect to adverse events occurring after Week 6 on the study.
The population for this study will be male or female adults who are daily cigarette smokers, intending to quit smoking, and are willing to set a quit date that is within 5 to 7 days of the start of treatment. Study treatment will start the day after randomization.
Safety assessments at clinic visits will occur on Day 2 and Day 7 during Week 1 and then weekly throughout the Treatment Period. Laboratory hematology and chemistry assessments will be made on Day 7, Week 6, and Week 12 (End of Treatment “EOT”) during the Treatment Period. Any ongoing adverse events at Week 12 will be followed until resolved or determined to be chronic. The end of study is defined as the last follow-up visit (up to the Week 24 visit) for the last subject.
The Treatment Period will begin on the day after randomization. Study treatment will be blinded, and subjects will take one study tablet three times during the day, approximately 5 hours apart. Subjects randomly assigned to Arm A will take one placebo tablet at each dosing per day for 12 weeks. Arm B subjects will take one cytisinicline tablet at each dosing per day for the first 6 weeks followed by one placebo tablet at each dosing per day for the last 6 weeks. Arm C subjects will take one cytisinicline tablet at each dosing per day for 12 weeks.
Laboratory (hematology and chemistry) evaluations will be performed at the Week 1, Week 6, and Week 12 clinic visits using a central laboratory.
Safety will be assessed by consideration of all adverse events reported by or elicited from the subject and abnormalities detected on hematology and serum chemistry tests. Worsening of other pre-existing medical conditions and any changes to concomitant medications/treatments will also be taken into account in this evaluation.
Routine laboratory safety samples will be analyzed at screening and at clinic visits as identified in Table 15 for each subject by a central laboratory. […] Clinically significant abnormalities occurring during the study will be recorded on the AE page. The reference ranges for laboratory parameters will also be entered in the database and filed in the Investigator site file.
Safety assessments will include reported adverse events, laboratory test results, and vital signs. Safety variables will be summarized for the Safety Analysis Set (SAS), defined as all randomized subjects who take at least one dose of study drug.
Adverse events (AEs) will be coded using the MedDRA dictionary. Coding will include system organ class (SOC) and preferred term (PT). All verbatim descriptions and coded terms will be listed for all AEs.

[2] = target: neuronal alpha4, beta2 (α4β2) receptors (Homo sapiens, UniProt P17787+P43681); conditions: background studies; cited from earlier work
[3] = drug reduction Day 35, first Insomnia listing, pooled blinded
[4] = drug reduction Day 35, pooled blinded
[5] = drug reduction Day 35, second Insomnia listing, pooled blinded
[6] = drug reduction Day 42, pooled blinded
[7] = drug reduction Day 49, pooled blinded
[8] = drug reduction Day 55, pooled blinded
[9] = drug reduction Day 58, pooled blinded
[10] = drug reduction Day 63, pooled blinded
[11] = follow up period, start day 86, resolution day 87, pooled blinded
[12] = follow up period, start day 87, resolution day 90, pooled blinded
[13] = follow up period, start day 87, resolution day 96, pooled blinded
[14] = follow up period, start day 102, resolution day 105, pooled blinded
[15] = follow up period, start day 104, resolution day 105, pooled blinded
[16] = follow up period, start day 107, resolution day 111, pooled blinded
[17] = follow up period, start day 112, resolution day 113, pooled blinded
[18] = follow up period, start day 115, resolution day 120, pooled blinded
[19] = follow up period, start day 119, resolution day 139, pooled blinded
[20] = follow up period, start day 146, no resolution day, pooled blinded
[21] = follow up period, start day 148, resolution day 152, pooled blinded
[22] = follow up period, start day 151, resolution day 161, pooled blinded
[23] = follow up period, start day 161, resolution day 161, pooled blinded
[24] = follow up period, start day 180, no resolution day, pooled blinded

Sequence of neuronal alpha4, beta2 (α4β2) receptors (P43681 29-627 limits assumed): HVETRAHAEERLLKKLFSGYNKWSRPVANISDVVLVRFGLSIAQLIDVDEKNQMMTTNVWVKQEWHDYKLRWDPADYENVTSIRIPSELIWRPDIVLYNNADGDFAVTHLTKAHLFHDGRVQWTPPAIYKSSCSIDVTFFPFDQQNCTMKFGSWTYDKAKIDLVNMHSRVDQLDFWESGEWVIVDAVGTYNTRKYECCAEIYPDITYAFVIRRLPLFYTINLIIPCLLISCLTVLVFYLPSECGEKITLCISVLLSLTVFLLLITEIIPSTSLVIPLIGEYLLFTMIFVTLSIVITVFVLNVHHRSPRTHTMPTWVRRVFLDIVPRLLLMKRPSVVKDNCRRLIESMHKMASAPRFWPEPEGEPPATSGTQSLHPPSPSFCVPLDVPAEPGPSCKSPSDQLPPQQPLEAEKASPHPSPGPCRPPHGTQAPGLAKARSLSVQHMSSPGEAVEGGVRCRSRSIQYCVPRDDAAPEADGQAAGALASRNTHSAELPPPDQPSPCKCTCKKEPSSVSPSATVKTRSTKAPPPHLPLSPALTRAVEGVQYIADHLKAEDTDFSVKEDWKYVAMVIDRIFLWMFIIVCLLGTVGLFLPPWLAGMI
Sequence of neuronal alpha4, beta2 (α4β2) receptors (P17787 26-502): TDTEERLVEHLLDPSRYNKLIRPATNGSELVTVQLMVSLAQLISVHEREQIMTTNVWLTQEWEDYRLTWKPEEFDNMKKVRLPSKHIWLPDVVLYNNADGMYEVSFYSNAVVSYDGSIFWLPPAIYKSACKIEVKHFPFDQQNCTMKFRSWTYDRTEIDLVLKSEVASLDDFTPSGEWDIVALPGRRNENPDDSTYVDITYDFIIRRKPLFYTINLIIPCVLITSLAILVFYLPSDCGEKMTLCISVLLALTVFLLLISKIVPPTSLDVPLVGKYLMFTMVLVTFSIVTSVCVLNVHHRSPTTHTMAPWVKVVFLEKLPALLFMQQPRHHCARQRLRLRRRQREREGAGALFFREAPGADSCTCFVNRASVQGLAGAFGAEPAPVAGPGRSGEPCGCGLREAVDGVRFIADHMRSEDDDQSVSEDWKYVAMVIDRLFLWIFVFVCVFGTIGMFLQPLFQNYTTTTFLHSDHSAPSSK

O=c1cccc2n1C[C@@H]1CNC[C@H]2C1 [cytisine, (−)-Cytisine]
Dose reduction for Insomnia: Outcome [1, 3]: Recovered/Resolved | Dose reduction for Insomnia: Relatedness [1, 3]: Probable | Dose reduction for Insomnia: Severity [1, 3]: Moderate | Dose reduction for Burning Eyes: Outcome [1, 4]: Recovered/Resolved | Dose reduction for Burning Eyes: Relatedness [1, 4]: Possible | Dose reduction for Burning Eyes: Severity [1, 4]: Moderate | Dose reduction for Headache: Outcome [1, 4]: Recovered/Resolved | Dose reduction for Headache: Relatedness [1, 4]: Possible | Dose reduction for Headache: Severity [1, 4]: Moderate | Dose reduction for Nausea: Outcome [1, 4]: Recovered/Resolved | Dose reduction for Nausea: Relatedness [1, 4]: Possible | Dose reduction for Nausea: Severity [1, 4]: Moderate | Dose reduction for Sinus Congestion: Outcome [1, 4]: Recovered/Resolved | Dose reduction for Sinus Congestion: Relatedness [1, 4]: Possible | Dose reduction for Sinus Congestion: Severity [1, 4]: Moderate | Dose reduction for Sinus Pressure: Outcome [1, 4]: Recovered/Resolved | Dose reduction for Sinus Pressure: Relatedness [1, 4]: Possible | Dose reduction for Sinus Pressure: Severity [1, 4]: Moderate | Dose reduction for Insomnia: Outcome [1, 5]: Recovered/Resolved | Dose reduction for Insomnia: Relatedness [1, 5]: Possible | Dose reduction for Insomnia: Severity [1, 5]: Moderate | Dose reduction for Difficulty Falling Asleep: Outcome [1, 6]: Recovered/Resolved | Dose reduction for Difficulty Falling Asleep: Relatedness [1, 6]: Possible | Dose reduction for Difficulty Falling Asleep: Severity [1, 6]: Moderate | Dose reduction for Restless Leg Syndrome: Outcome [1, 7]: Recovered/Resolved | Dose reduction for Restless Leg Syndrome: Relatedness [1, 7]: Possible | Dose reduction for Restless Leg Syndrome: Severity [1, 7]: Moderate | Dose reduction for Memory Loss: Outcome [1, 8]: Recovered/Resolved | Dose reduction for Memory Loss: Relatedness [1, 8]: Possible | Dose reduction for Memory Loss: Severity [1, 8]: Moderate | Dose reduction for Bilateral Foot Swelling: Outcome [1, 9]: Recovered/Resolved | Dose reduction for Bilateral Foot Swelling: Relatedness [1, 9]: Possible | Dose reduction for Bilateral Foot Swelling: Severity [1, 9]: Mild | Dose reduction for Facial Swelling (Forehead Area): Outcome [1, 9]: Recovered/Resolved | Dose reduction for Facial Swelling (Forehead Area): Relatedness [1, 9]: Possible | Dose reduction for Facial Swelling (Forehead Area): Severity [1, 9]: Mild | Dose reduction for Right Hand Swelling: Outcome [1, 9]: Recovered/Resolved | Dose reduction for Right Hand Swelling: Relatedness [1, 9]: Possible | Dose reduction for Right Hand Swelling: Severity [1, 9]: Mild | Dose reduction for Headache: Outcome [1, 10]: Recovered/Resolved | Dose reduction for Headache: Relatedness [1, 10]: Possible | Dose reduction for Headache: Severity [1, 10]: Mild | Serious adverse event Post Surgical Complications: Causality [1, 11]: Not | Serious adverse event Post Surgical Complications: Outcome [1, 11]: Fatal | Serious adverse event Post Surgical Complications: Severity/Intensity [1, 11]: Severe | Serious adverse event Worsening Fatigue: Causality [1, 12]: Not | Serious adverse event Worsening Fatigue: Outcome [1, 12]: Recovered/Resolved | Serious adverse event Worsening Fatigue: Severity/Intensity [1, 12]: Moderate | Serious adverse event Coronary Atherosclerosis: Causality [1, 13]: Not | Serious adverse event Coronary Atherosclerosis: Outcome [1, 13]: Recovered/Resolved | Serious adverse event Coronary Atherosclerosis: Severity/Intensity [1, 13]: Severe | Serious adverse event Acute Cholecystitis: Causality [1, 14]: Not | Serious adverse event Acute Cholecystitis: Outcome [1, 14]: Recovered/Resolved | Serious adverse event Acute Cholecystitis: Severity/Intensity [1, 14]: Moderate | Serious adverse event Transient Ischemic Attack: Causality [1, 15]: Not | Serious adverse event Transient Ischemic Attack: Outcome [1, 15]: Recovered/Resolved | Serious adverse event Transient Ischemic Attack: Severity/Intensity [1, 15]: Severe | Serious adverse event Perforated Bowel: Causality [1, 16]: Not | Serious adverse event Perforated Bowel: Outcome [1, 16]: Recovered/Resolved | Serious adverse event Perforated Bowel: Severity/Intensity [1, 16]: Severe | Serious adverse event Abscess on Right Groin Area: Causality [1, 17]: Not | Serious adverse event Abscess on Right Groin Area: Outcome [1, 17]: Recovered/Resolved | Serious adverse event Abscess on Right Groin Area: Severity/Intensity [1, 17]: Severe | Serious adverse event COPD Exacerbation: Causality [1, 18]: Not | Serious adverse event COPD Exacerbation: Outcome [1, 18]: Recovered/Resolved | Serious adverse event COPD Exacerbation: Severity/Intensity [1, 18]: Severe | Serious adverse event Sepsis: Causality [1, 18]: Unlikely | Serious adverse event Sepsis: Outcome [1, 18]: Recovered/Resolved | Serious adverse event Sepsis: Severity/Intensity [1, 18]: Severe | Serious adverse event Pneumonia: Causality [1, 19]: Not | Serious adverse event Pneumonia: Outcome [1, 19]: Recovered/Resolved | Serious adverse event Pneumonia: Severity/Intensity [1, 19]: Severe | Serious adverse event Acute Kidney Injury Superimposed to Chronic Kidney Disease: Causality [1, 20]: Unlikely | Serious adverse event Acute Kidney Injury Superimposed to Chronic Kidney Disease: Outcome [1, 20]: Not Recovered/Not | Serious adverse event Acute Kidney Injury Superimposed to Chronic Kidney Disease: Severity/Intensity [1, 20]: Severe | Serious adverse event Ureterolithiasis: Causality [1, 20]: Unlikely | Serious adverse event Ureterolithiasis: Outcome [1, 20]: Not Recovered/Not | Serious adverse event Ureterolithiasis: Severity/Intensity [1, 20]: Severe | Serious adverse event Pneumonia: Causality [1, 21]: Not | Serious adverse event Pneumonia: Outcome [1, 21]: Recovered/Resolved | Serious adverse event Pneumonia: Severity/Intensity [1, 21]: Severe | Serious adverse event Dyspnea: Causality [1, 22]: Unlikely | Serious adverse event Dyspnea: Outcome [1, 22]: Recovered/Resolved | Serious adverse event Dyspnea: Severity/Intensity [1, 22]: Severe | Serious adverse event Stab Wound: Causality [1, 23]: Not | Serious adverse event Stab Wound: Outcome [1, 23]: Fatal | Serious adverse event Stab Wound: Severity/Intensity [1, 23]: Severe | Serious adverse event Dyspnea: Causality [1, 24]: Not | Serious adverse event Dyspnea: Outcome [1, 24]: Not Recovered/Not | Serious adverse event Dyspnea: Severity/Intensity [1, 24]: Severe | Psychiatric adverse event Abnormal dreams, % ([1]; pooled blinded data): (7.5) % | Psychiatric adverse event Acute stress disorder, % ([1]; pooled blinded data): (0.1) % | Psychiatric adverse event Adjustment disorder with depressed mood, % ([1]; pooled blinded data): (0.1) % | Psychiatric adverse event Affect lability, % ([1]; pooled blinded data): (0.1) % | Psychiatric adverse event Anhedonia, % ([1]; pooled blinded data): (0.5) % | Psychiatric adverse event Anxiety, % ([1]; pooled blinded data): (2.5) % | Psychiatric adverse event Attention deficit hyperactivity disorder, % ([1]; pooled blinded data): (0.1) % | Psychiatric adverse event Bipolar disorder, % ([1]; pooled blinded data): (0.1) % | Psychiatric adverse event Bruxism, % ([1]; pooled blinded data): (0.1) % | Psychiatric adverse event Depressed mood, % ([1]; pooled blinded data): (0.5) % | Psychiatric adverse event Depression, % ([1]; pooled blinded data): (2.0) % | Psychiatric adverse event Initial insomnia, % ([1]; pooled blinded data): (0.3) % | Psychiatric adverse event Insomnia, % ([1]; pooled blinded data): (10.2) % | Psychiatric adverse event Irritability, % ([1]; pooled blinded data): (1.7) % | Psychiatric adverse event Major depression, % ([1]; pooled blinded data): (0.1) % | Psychiatric adverse event Mood swings, % ([1]; pooled blinded data): (0.1) % | Psychiatric adverse event Nightmare, % ([1]; pooled blinded data): (1.1) % | Psychiatric adverse event Panic attack, % ([1]; pooled blinded data): (0.3) % | Psychiatric adverse event Paranoia, % ([1]; pooled blinded data): (0.1) % | Psychiatric adverse event Post-traumatic stress disorder, % ([1]; pooled blinded data): (0.1) % | Psychiatric adverse event Restlessness, % ([1]; pooled blinded data): (0.3) % | Psychiatric adverse event Sleep disorder, % ([1]; pooled blinded data): (0.5) % | Psychiatric adverse event Somnambulism, % ([1]; pooled blinded data): (0.1) % | Psychiatric adverse event Stress, % ([1]; pooled blinded data): (0.1) % | Psychiatric adverse event Suicidal ideation, % ([1]; pooled blinded data): (0.1) % | Psychiatric adverse event Suicide attempt, % ([1]; pooled blinded data): (0.3) % | Psychiatric disorders (any psychiatric reported adverse event), % ([1]; pooled blinded data): (22.9) % | Abnormal lab AE related to study drug, Elevated ALT Level: Outcome of Adverse Event ([1]; start Day 29, dose not changed): Recovered/Resolved | Abnormal lab AE related to study drug, Elevated ALT Level: Severity ([1]; start Day 29, dose not changed): Mild | Abnormal lab AE related to study drug, Elevated AST Level: Outcome of Adverse Event ([1]; start Day 29, dose not changed): Recovered/Resolved | Abnormal lab AE related to study drug, Elevated AST Level: Severity ([1]; start Day 29, dose not changed): Mild | Abnormal lab AE related to study drug, Elevated Hemoglobin: Outcome of Adverse Event ([1]; start Day 85): Recovered/Resolved | Abnormal lab AE related to study drug, Low White Blood Count: Outcome of Adverse Event ([1]; start Day 85): Not Recovered/Not | Abnormal lab AE related to study drug, Elevated ALT: Outcome of Adverse Event ([1]; start Day 169): Not Recovered/Not | Abnormal lab AE related to study drug, Elevated ALT: Severity ([1]; start Day 169): Moderate | Abnormal lab AE related to study drug, Low White Blood Count: Parameter value at AE ([1]; value at screening 5.1 × 10^9/L, start Day 85): 2.5e+09 L⁻¹ | Abnormal lab AE related to study drug, Elevated ALT Level: Parameter value at AE ([1]; value at screening 25 IU/L, start Day 29, dose not changed): 195 IU/L | Abnormal lab AE related to study drug, Elevated AST Level: Parameter value at AE ([1]; value at screening 29 IU/L, start Day 29, dose not changed): 129 IU/L | Abnormal lab AE related to study drug, Elevated ALT: Parameter value at AE ([1]; value at screening 50 IU/L, start Day 169): 82 IU/L | Abnormal lab AE related to study drug, Elevated Hemoglobin: Parameter value at AE ([1]; value at screening 158 g/L, start Day 85): 130 g/L | Binding to α4β2 receptors [2]: bind strongly and preferentially

Source: patent US20260158011A1 (Achieve Life Sciences, Inc., priority 2023, published 2026)
